Measured values taken from publication PMC11532494 (Nature Communications, 2024).
Several values for one entry are separate records, joined by “and”; a condition that tells them apart may be missing. Equal entries are not always repeated.

How the values were obtained:
PsApaH (4) = PsApaH (4) (Pseudomonas sp. M30-35, UniProt A0A1Y0KY79); test: Acetyl-polyamine deacetylase assay; type: biochemical; conditions: for [acetate] (individual samples): acetate released from acetyl-polyamine substrate, Sample 1-3; for [acetate] mean: mean of samples
Chain of PsApaH (4) (A0A1Y0KY79 1-342 limits assumed): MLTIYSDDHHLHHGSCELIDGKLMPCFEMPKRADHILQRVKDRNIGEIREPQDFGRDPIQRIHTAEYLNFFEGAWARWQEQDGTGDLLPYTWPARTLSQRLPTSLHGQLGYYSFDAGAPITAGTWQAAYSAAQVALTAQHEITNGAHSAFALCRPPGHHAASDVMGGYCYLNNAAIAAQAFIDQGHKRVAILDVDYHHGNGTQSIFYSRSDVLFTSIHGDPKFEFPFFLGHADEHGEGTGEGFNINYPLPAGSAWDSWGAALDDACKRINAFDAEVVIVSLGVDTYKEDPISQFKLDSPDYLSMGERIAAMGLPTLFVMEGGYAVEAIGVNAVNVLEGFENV

PA1409 = PA1409 (Pseudomonas aeruginosa, UniProt Q9I3T5); test: Acetyl-polyamine deacetylase assay (positive control); type: biochemical; conditions: for [acetate] (individual samples): PA1409, acetate released from acetyl-polyamine substrate, Sample 1-2; for [acetate] mean: mean of samples
Chain of PA1409 (Q9I3T5 whole entry): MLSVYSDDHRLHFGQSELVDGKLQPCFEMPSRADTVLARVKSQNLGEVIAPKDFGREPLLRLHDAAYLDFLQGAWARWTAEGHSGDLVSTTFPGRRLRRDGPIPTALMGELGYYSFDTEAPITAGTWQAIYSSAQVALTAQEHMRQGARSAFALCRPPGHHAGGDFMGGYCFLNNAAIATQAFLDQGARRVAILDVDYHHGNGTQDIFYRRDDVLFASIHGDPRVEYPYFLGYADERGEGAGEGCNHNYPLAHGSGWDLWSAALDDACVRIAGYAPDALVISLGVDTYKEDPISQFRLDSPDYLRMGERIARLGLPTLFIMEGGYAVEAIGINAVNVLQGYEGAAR

Structure (SMILES) | [acetate] (individual samples) (PsApaH (4); time 5 min) | [acetate] (individual samples) (PsApaH (4); time 10 min) | [acetate] (individual samples) (PsApaH (4); time 20 min) | [acetate] (individual samples) (PsApaH (4); time 45 min) | [acetate] mean (PsApaH (4); time 5 min) [mM] | [acetate] mean (PsApaH (4); time 10 min) [mM] | [acetate] mean (PsApaH (4); time 20 min) [mM] | [acetate] mean (PsApaH (4); time 45 min) [mM] | [acetate] (individual samples) (PA1409; time 5 min) | [acetate] (individual samples) (PA1409; time 10 min) | [acetate] (individual samples) (PA1409; time 20 min) | [acetate] (individual samples) (PA1409; time 45 min) | [acetate] mean (PA1409; PA1409, time 5 min) [mM] | [acetate] mean (PA1409; PA1409, time 10 min) [mM] | [acetate] mean (PA1409; PA1409, time 20 min) [mM] | [acetate] mean (PA1409; PA1409, time 45 min) [mM]
CC(=O)NCCCCCN [N1-acetylcadaverine] | 2.228 mM and 2.337 mM and 2.011 mM | 5.272 mM and 5.38 mM and 5.337 mM | 7.446 mM and 7.663 mM and 8.054 mM | 9.337 mM and 10.2283 mM and 9.967 mM | 2.192 | 5.33 | 7.721 | 9.844 | 3.7616 mM and 3.63 mM | 14.5405 mM and 14.4965 mM | 22.4156 mM and 22.0637 mM | 23.2955 mM and 23.4715 mM | 3.696 | 14.5185 | 22.2396 | 23.3835
CC(=O)NCCCCN [N1-acetylputrescine] | 1.6 mM (2×) and 2.1 mM | 8.8 mM and 8.3 mM and 8 mM | 12 mM and 13 mM and 12.2 mM | 18 mM and 16.6 mM and 17.6 mM | 1.767 | 8.367 | 12.4 | 17.4 | 2.66 mM and 2.46 mM | – | 10.76 mM and 10.61 mM | 15.78 mM and 16.29 mM | 2.56 | – | 10.685 | 16.035
CC(=O)NCCCNCCCCN [N1-acetylspermidine] | 0.06608 mM and 0.08811 mM | 0.06608 mM and 0.1322 mM | 0.3304 mM and 0.3084 mM | 0.2643 mM and 0.3965 mM | 0.07709 | 0.09912 | 0.3194 | 0.3304 | 1.542 mM and 1.762 mM | 8.1499 mM and 9.163 mM | 14.4496 mM and 14.5817 mM | 15.6831 mM and 14.9782 mM | 1.652 | 8.657 | 14.5156 | 15.3306
CC(=O)NCCCNCCCCNCCCN [N1-acetylspermine] | 3.446 mM and 3.815 mM and 3.598 mM | 5.9022 mM and 5.728 mM and 6.011 mM | 8.6196 mM and 9.685 mM and 8.576 mM | 12.6414 mM and 13.25 mM and 13.0327 mM | 3.62 | 5.88 | 8.96 | 12.9747 | 4.758 mM and 5.242 mM | 18.4144 mM and 18.3703 mM | 24.4938 mM and 25.2427 mM | 26.7845 mM and 27.0048 mM | 5 | 18.3923 | 24.8682 | 26.8947
